# Results: paper PMC8597745, “The Antimicrobial Peptide MK58911-NH2 Acts on Planktonic, Biofilm, and Intramacrophage Cells of Cryptococcus neoformans” (Antimicrobial Agents and Chemotherapy, 2021)
# No end group written: not given here.
# Legend:
# C. gattii = assay: microbe, parasite or virus in culture; settings: 48 h; for MIC: Cryptococcus gattii, read-out: C. gattii MIC; for C. gattii MIC: 37°C, RPMI 1640, visual reading
# Procedure: (§1) C. neoformans ATCC 90112 and C. gattii ATCC 56990 were purchased from the collection of the Laboratory of Clinical Mycology, Faculty of Pharmaceutical Sciences of UNESP, Araraquara, Brazil. Cryptococcus species were grown at 30°C for 48 to 72 h in Sabouraud dextrose agar.
# (§2) Anti-Cryptococcus activity was determined by the broth microdilution method according to document M27-A3 from the Clinical and Laboratory Standards Institute ([47]). Briefly, 100 μl of a fungal suspension at […] in RPMI 1640 medium was added to each well of the 96-well plate. Subsequently, 100 μl of MK58911-NH2, MK58911(1–7)-OH, MK58911(8–14)-NH2, MK58911(4–11)-OH, and MH58911 (0.48 to 250 μg/ml); amphotericin B (0.016 to 8 μg/ml); and fluconazole (0.063 to 32 μg/ml), all diluted in RPMI 1640 medium, was added to the plate. The fungal suspension and RPMI 1640 medium were used as the positive and negative controls, respectively. The plate was incubated at 37°C at 150 rpm for 48 h. Next, fungal growth was visually observed, and the MIC was determined. Three independent experiments were performed.
# C. neoformans [1] = assay: microbe, parasite or virus in culture; settings: 48 h; for MIC: Cryptococcus neoformans, read-out: C. neoformans MIC; for C. neoformans MIC: 37°C, RPMI 1640, visual reading
# Procedure: as §1, §2
# [2] = system: intramacrophage C. neoformans; assay: Intramacrophage activity (J774 macrophages infected with C. neoformans, CFU); assay type: cell-based, Cryptococcus neoformans; settings: treatment at the MIC, 24 h; control 4.5 × 10^3 CFU/well
# Procedure: The medium was used as a positive control. […] Three independent experiments were performed.
# [3] = system: C. neoformans biofilm formation; assay: Antibiofilm activity, biofilm formation at 0 h (XTT reduction); assay type: cell-based, Cryptococcus neoformans
# Procedure: (§4) Briefly, C. neoformans was grown in Sabouraud dextrose broth at 30°C at 150 rpm for 24 h. To evaluate the effect of peptides on biofilm formation, a fungal suspension of 1 × 10^7 cells/ml in minimal medium (20 mg/ml thiamine, 30 mM glucose, 26 mM glycine, 20 mM MgSO4·7H2O, 58.8 mM KH2PO4) was prepared, and 100 μl of the suspension was added to individual wells of 96-well polystyrene plates (TPP, Switzerland). […] The plate was incubated at 37°C for 48 h. To evaluate the effect of the peptides on the mature biofilm, 100 μl of the fungal suspension was added to individual wells of a 96-well plate, and the plate was incubated at 37°C for 48 h. After that period, the supernatant was removed, and the peptides and drugs were added. The plate was again incubated at 37°C for 48 h. The metabolic activity of the biofilms was quantified by the 2,3-bis(2-methoxy-4-nitro-5-sulfophenyl)-5-[(phenylamino)carbonyl]-2H-tetrazolium hydroxide (XTT) reduction assay. For this, a solution with 50 μl of XTT (1 mg/ml in PBS) and 4 μl of menadione (1 mM in ethanol; Sigma-Aldrich, São Paulo, SP, Brazil) was added to each well of the 96-well plate. After 3 h of incubation at 37°C, the fluorescence intensity was measured using a microplate reader (BioTek) at 490 nm. Subsequently, the percentage of metabolic activity of the biofilm treated with peptides/drugs was compared to that of the untreated control. […]
# [4] = system: C. neoformans mature biofilm; assay: Antibiofilm activity, mature biofilm at 48 h (XTT reduction); assay type: cell-based, Cryptococcus neoformans
# Procedure: as §4
# C. neoformans [5] = assay: Zebrafish embryo immersion infection model, fungal burden (CFU); assay type: in vivo, zebrafish embryos; settings: immersion infection 1 × 10^6 cells/ml, treatment at the MIC for 24 h
# Procedure: (§3) A zebrafish embryo infection model by immersion was used, as previously described for C. albicans, with some modifications ([22]). The housing and breeding of the fish used in this study received appropriate institutional approvals (permit number 01.0082.2014). Briefly, 15 zebrafish embryos at 24 h postfertilization (hpf) and cultured in embryo medium at 28°C were used. Embryos were coincubated in wells with C. neoformans at 1 × 10^6 cells/ml by immersion. The plate was incubated at 28°C at 80 rpm for 24 h. Subsequently, the embryos were washed twice with embryo medium and transferred to a 96-well plate (1 embryo/well). Next, 100 μl of MK58911-NH2, amphotericin B, and fluconazole, all diluted in embryo medium and at the MIC, was added to the wells. The plate was incubated at 28°C at 80 rpm for 24 h. After that, the embryos were lysed individually in 2% Triton X-100–PBS using a 26-gauge needle. A […] dilution was performed in PBS, and 10 μl was plated onto Sabouraud dextrose agar containing 50 mg/liter chloramphenicol. […] The groups were tested in triplicate, and two independent experiments were performed. Images of some embryos 4 h after infection with C. neoformans, labeled with calcofluor white, were acquired with an In Cell Analyzer 2000 microscope (GE).
# in vitro [6] = settings: human, MRC5 pulmonary fibroblasts
# Procedure: (§5) The impact of peptides on the viability of pulmonary fibroblasts (MRC5) was also evaluated. Cells were cultured in Dulbecco’s high-glucose modified Eagle medium (DMEM; Gibco, Thermo Fisher Scientific) supplemented with 10% fetal bovine serum (FBS) in 25-cm^2 flasks. For the assay, cells were seeded into 96-well plates at 5 × 10^4 cells/well. The cells were left to grow at 37°C in a 5% CO2 incubator for 24 h until they reached confluence. […] DMEM and dimethyl sulfoxide (DMSO) were used as the positive and negative controls, respectively. The plates were then incubated at 37°C in a 5% CO2 incubator for 24 h. Resazurin (0.01%; Sigma-Aldrich) was then used to assess the viability of the cells according to the manufacturer’s instructions. After 4 h of incubation at 37°C in a 5% CO2 incubator, the fluorescence intensity was measured using a microplate reader (BioTek) at 570 to 600 nm. The fluorescence values were normalized by the positive control and expressed as a percentage of metabolic activity. Values for the 50% inhibitory concentration (IC50) were calculated. Three independent experiments were performed.
# in vitro [7] = settings: mouse, J774 macrophages
# Procedure: as §5
# The impact of peptides on the viability of macrophages (J774) was also evaluated as described above for MRC5 cells.
# zebrafish embryos = assay: Survival of infected zebrafish embryos under treatment; assay type: in vivo; settings: treatment at the MIC for 24 h
# Procedure: as §3
compound,measurement,setting,value
C[C@@H]1[C@H](O)[C@@H](C)/C=C/C=C/C=C/C=C/C=C/C=C/C=C/[C@H](O[C@@H]2O[C@H](C)[C@@H](O)[C@H](N)[C@@H]2O)C[C@@H]2O[C@](O)(C[C@@H](O)C[C@@H](O)[C@H](O)CC[C@@H](O)C[C@@H](O)CC(=O)O[C@H]1C)C[C@H](O)[C@H]2C(=O)O [Amphotericin B],MIC,C. gattii,0.125 µg/mL
same,MIC,C. neoformans [1],0.125 µg/mL
same,intramacrophagic fungal burden (average),[2],1.1 × 10^3 CFU/well
same,concentration at which formation of C. neoformans biofilms can be prevented,[3],> 0.5 µg/mL
same,concentration at which mature biofilms can be inhibited,[4]; mature biofilms,> 2 µg/mL
same,fungal burden (CFU) of embryos' chorion vs untreated control,C. neoformans [5],significant reduction in CFU
OC(Cn1cncn1)(Cn1cncn1)c1ccc(F)cc1F [Fluconazole],MIC,C. gattii,8 µg/mL
same,MIC,C. neoformans [1],1 µg/mL
same,intramacrophagic fungal burden (average),[2],1.8 × 10^3 CFU/well
same,susceptibility of C. neoformans biofilms,"[4]; biofilms in vitro, corroborates ref 13",resistant
same,fungal burden (CFU) of embryos' chorion vs untreated control,C. neoformans [5],did not reduce the fungal burden
"INWLHIAHHVHGML-NH2 [MH58911-NH2, INWLHIAHHVHGML-NH2]",C. gattii MIC,C. gattii,>250 µg/mL
same,C. neoformans MIC,C. neoformans [1],>250 µg/mL
same,IC50 at 24 h,in vitro [6],> 500 µg/mL
same,IC50 at 24 h,in vitro [7],> 250 µg/mL
"INWLKIA-OH [MK58911(1–7)-OH, INWLKIA-OH]",IC50 at 24 h,in vitro [6],> 500 µg/mL
"INWLKIAKKVKGML-NH2 [MK58911-NH2, INWLKIAKKVKGML-NH2]",C. gattii MIC,C. gattii,15.63 µg/mL
same,C. neoformans MIC,C. neoformans [1],31.25 µg/mL
same,embryo survival under treatment,zebrafish embryos,All embryos survived
same,IC50 at 24 h,in vitro [6],> 500 µg/mL
same,IC50 at 24 h,in vitro [7],62.5 µg/mL
"KKVKGML-NH2 [MK58911(8–14)-NH2, KKVKGML-NH2]",C. gattii MIC,C. gattii,>250 µg/mL
same,C. neoformans MIC,C. neoformans [1],>250 µg/mL
same,IC50 at 24 h,in vitro [6],> 500 µg/mL
"LKIAKKVK-OH [MK58911(4–11)-OH, LKIAKKVK-OH]",IC50 at 24 h,in vitro [6],> 500 µg/mL
